Test results as given in paper PMC9214036, “Design and Synthesis of Novel PRMT1 Inhibitors and Investigation of Their Effects on the Migration of Cancer Cell” (Frontiers in Chemistry, 2022).
Counter-ions that a name gives are not always drawn.

Assays:
[1] = target: PRMT1 (Homo sapiens, UniProt Q99873); assay: Radioactive PRMT1 methylation inhibition assay ([3H]-SAM, biotinylated histone H4 peptide); type: biochemical; details: for inhibition at 10 µM: compound at 10 μM, read-out: % Inhibition of PRMT1 (at 10 μM); for IC50: radioactive methylation assay, read-out: IC50 (μM) against PRMT1
Method: A series of 2,5-substituted furan and 2,4-substituted thiazole derivatives were synthesized and screened for their inhibitory effects on PRMT1 by using the radioactive PRMT1 methylation inhibition assay, which measured the amount of methyl groups that transferred from [^3H]-SAM to a biotinylated histone H4 peptide [ac-[…](Biotin)] (Tables 1–3).
The enzyme inhibitory activities and selectivity were measured by the radioisotope assay and AlphaLISA assay in ShangHai Chempartner Co., Ltd., according to the standard protocol. […] After 250 nL of compound solutions were added to the assay plate, 15 μl of PRMT1 enzyme solution or ×1 assay buffer for negative control was transferred to each well of prepared compound stock plates and the whole system (the final concentration of PRMT1 was 0.5 nM or 2 nM in the system) was incubated for 15 min at room temperature. […] Afterward, the reaction was stopped with the addition of 5 μl cold SAM solution to each well. Then, 25 μl volume per well was transferred to a Flashplate from the assay plate and incubated for a minimum of 1 h at room temperature. Finally, the Flashplate was washed with dH2O and 0.1% Tween-20 three times and then the reading plate in Microbeta using the program ^3H-Flashplate. The data were analyzed in GraphPad Prism 5 to obtain IC50 values.

PRMT1, sequence (Q99873 whole entry): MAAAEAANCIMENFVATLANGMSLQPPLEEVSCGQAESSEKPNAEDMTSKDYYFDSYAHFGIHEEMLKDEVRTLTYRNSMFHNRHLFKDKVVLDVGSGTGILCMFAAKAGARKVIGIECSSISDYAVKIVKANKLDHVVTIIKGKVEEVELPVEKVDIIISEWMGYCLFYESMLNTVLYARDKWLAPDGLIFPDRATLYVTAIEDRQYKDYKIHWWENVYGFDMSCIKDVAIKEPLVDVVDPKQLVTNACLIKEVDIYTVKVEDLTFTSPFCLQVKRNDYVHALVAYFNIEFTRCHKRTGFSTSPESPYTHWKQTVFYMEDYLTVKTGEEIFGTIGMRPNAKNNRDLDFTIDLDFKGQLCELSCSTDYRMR

## CNCCN(C)Cc1ccc(-c2ccc(Cl)c(C(=N)N)c2)o1 (as salt: hydrochloride) [Compound 1k, N′-[5-(3-Amidino-4-chloro-phen-1-yl)-furan-2-yl-methyl]-N,N′-dimethylethylenediamine Hydrochloride]
other
  melting point: 223 to 225 °C

## CNCCN(C)Cc1ccc(-c2ccc(C(=O)NN)cc2)o1 [Compound 1b, N′-[5-(4-Formylhydrazide-phen-1-yl)-furan-2-yl-methyl]-N,N′-dimethylethylenediamine Hydrochloride]
[1]
  inhibition at 10 µM: 48 ± 0.02%

## Cl.N=C(N)c1ccc(-c2ccc(CN3CCNCC3)o2)cn1 [Compound 1n, N′-[5-(2-Amidino-5-pyridyl)furan-2-yl-methyl]-piperazine Hydrochloride]
[1]
  inhibition at 10 µM: 73.51 ± 0.06%
  IC50: 4.68 ± 0.26 µM
other
  melting point: 197.7 to 199.3 °C

## CN(CCN)Cc1ccc(-c2ccc(C(=N)N)nc2)o1.Cl [Compound 1o, N′-[5-(2-Amidino-5-pyridyl)furan-2-yl-methyl]-N′-methylethylenediamine Hydrochloride]
[1]
  inhibition at 10 µM: 89.02 ± 0.05%
  IC50: 2.41 ± 0.18 µM
other
  melting point: 223.4 to 224.8 °C

## CNCCN(C)Cc1ccc(-c2cccc(N)c2)o1.Cl [Compound 1d, N′-[5-(3-Aminophenyl)-furan-2-yl-methyl]-N,N′-dimethylethylenediamine Hydrochloride]
[1]
  inhibition at 10 µM: 35.99 ± 0.09%
other
  melting point: 64.2 to 65.2 °C

## CNCCN(C)Cc1ccc(-c2ccc(C(N)=O)cc2)o1 [Compound 1a, N′-[5-(4-Formamide-phen-1-yl)-furan-2-yl-methyl]-N,N′-dimethylethylenediamine Hydrochloride]
[1]
  inhibition at 10 µM: 10.6 ± 2.24%

## N=C(N)c1ccc(-c2ccc(-c3ccc(C(=N)N)cc3)o2)cc1 [DB75, furamidine, reference compound]
[1]
  inhibition at 10 µM: 98.13 ± 0.27%
  IC50: 0.31 ± 0.04 µM

## CNCCN(C)Cc1ccc(-c2ccc(C(=N)N)c(F)c2)o1 [Compound 1i, N′-[5-(3-Fluoro-4-amidino-phen-1-yl)-furan-2-yl-methyl]-N,N′-dimethylethylenediamine Hydrochloride]
[1]
  inhibition at 10 µM: 68 ± 0.02%
  IC50: 4.42 ± 0.63 µM

## CNCCN(C)Cc1ccc(-c2ccc(C(N)=NO)c(F)c2)o1 (as salt: hydrochloride) [Compound 1f, N′-[5-(3-Fluoro-4-N-hydroxyamidino-phen-1-yl)-furan-2-yl-methyl]-N,N′-dimethylethylenediamine Hydrochloride]
other
  melting point: 216.8 to 218.6 °C

## CNCCN(C)Cc1ccc(-c2ccc(C(N)=NO)cc2)o1 (as salt: hydrochloride) [Compound 1e, N′-[5-(4-N-Hydroxyamidino-phen-1-yl)-furan-2-yl-meth-yl]-N,N′-dimethylethylenediamine Hydrochloride]
other
  melting point: 231.2 to 232.8 °C

## CNCCN(C)Cc1ccc(-c2ccc(C(=O)NN)cc2)o1 (as salt: hydrochloride) [Compound 1b, N′-[5-(4-Formylhydrazide-phen-1-yl)-furan-2-yl-methyl]-N,N′-dimethylethylenediamine Hydrochloride]
other
  melting point: 246.2 to 246.9 °C

## CNCCN(C)Cc1ccc(-c2ccc(C(N)=NO)cc2)o1 [Compound 1e, N′-[5-(4-N-Hydroxyamidino-phen-1-yl)-furan-2-yl-meth-yl]-N,N′-dimethylethylenediamine Hydrochloride]
[1]
  inhibition at 10 µM: 32%

## CNCCN(C)Cc1ccc(-c2cccc(C(N)=NO)c2)o1 [Compound 1g, N′-[5-(3-N-Hydroxyamidino-phen-1-yl)-furan-2-yl-methyl]-N,N′-dimethylethylenediamine Hydrochloride]
[1]
  inhibition at 10 µM: 39.98 ± 0.19%

## CNCCN(C)Cc1ccc(-c2ccc(Cl)c(C(=N)N)c2)o1 [Compound 1k, N′-[5-(3-Amidino-4-chloro-phen-1-yl)-furan-2-yl-methyl]-N,N′-dimethylethylenediamine Hydrochloride]
[1]
  inhibition at 10 µM: 76.5 ± 0.01%
  IC50: 2.5 ± 0.91 µM

## CNCCN(C)Cc1ccc(-c2ccc(C(N)=NO)c(F)c2)o1 [Compound 1f, N′-[5-(3-Fluoro-4-N-hydroxyamidino-phen-1-yl)-furan-2-yl-methyl]-N,N′-dimethylethylenediamine Hydrochloride]
[1]
  inhibition at 10 µM: 35.97 ± 0.2%

## CNCCN(C)Cc1ccc(-c2ccc(C(=N)N)nc2)o1.Cl [Compound 1l, N′-[5-(2-Amidino-5-pyridyl)furan-2-yl-methyl]-N,N′-dimethylethylenediamine Hydrochloride]
[1]
  inhibition at 10 µM: 92.12 ± 0.28%
  IC50: 1.29 ± 0.12 µM
[1]; fold weaker than DB75
  PRMT1 IC50 compared with DB75: four times weaker than DB75
[1]; fold weaker than SAH
  PRMT1 IC50 compared with SAH: about two times weaker than SAH
other
  melting point: 75.8 to 78.2 °C

## CNCCN(C)Cc1ccc(-c2cccc(C(N)=NO)c2)o1 (as salt: hydrochloride) [Compound 1g, N′-[5-(3-N-Hydroxyamidino-phen-1-yl)-furan-2-yl-methyl]-N,N′-dimethylethylenediamine Hydrochloride]
other
  melting point: 60.8 to 63.2 °C

## CNCCN(C)Cc1ccc(-c2ccc(N)cc2)o1.Cl [Compound 1c, N′-[5-(4-Aminophenyl)-furan-2-yl-methyl]-N,N′-dimeth-ylethylenediamine Hydrochloride]
[1]
  inhibition at 10 µM: 50 ± 0.18%
  IC50: 21.4 ± 12.8 µM
other
  melting point: 60.2 to 61.1 °C

## CNCCN(C)Cc1ccc(-c2ccc(C(N)=O)cc2)o1 (as salt: hydrochloride) [Compound 1a, N′-[5-(4-Formamide-phen-1-yl)-furan-2-yl-methyl]-N,N′-dimethylethylenediamine Hydrochloride]
other
  melting point: 212.2 to 214.6 °C

## CNCCN(C)Cc1ccc(-c2ccc(C(=N)N)c(F)c2)o1 (as salt: hydrochloride) [Compound 1i, N′-[5-(3-Fluoro-4-amidino-phen-1-yl)-furan-2-yl-methyl]-N,N′-dimethylethylenediamine Hydrochloride]
other
  melting point: 156.5 to 159.2 °C

## CNCCN(Cc1ccc(-c2ccc(C(=N)N)nc2)o1)C1CC1.Cl [Compound 1m, N-Methyl-N′-[5-(2-amidino-5-pyridyl)furan-2-yl-methyl]-N′-cyclopropylethylenediamine Hydrochloride]
[1]
  inhibition at 10 µM: 48 ± 0.02%
  IC50: 10.8 ± 1.3 µM
other
  melting point: 95.9 to 98.3 °C
